US20240150377A1, “MODULATORS OF CYSTIC FIBROSIS TRANSMEMBRANE CONDUCTANCE REGULATOR” (VERTEX PHARMACEUTICALS INCORPORATED, priority 2020, published 2024)
pEC50: −log10 of the molar value. Read-outs that look alike come from different tables or passages of the source.

Tests used:
CFTR [1] = target: T1, CFTR (Homo sapiens, UniProt P13569, DEL508-508); test: HBE2 assay: Ussing chamber assay of CFTR-mediated short-circuit currents; assay type: cell-based; details: F508del/MF-HBE cells, with 44 nM potentiator, 18-24 hours, 20% human serum; for Emax: read-out: HBE2 Max activity (%)
T1 construct: endogenous in cells; host or cells: primary human bronchial epithelial cells from CF subjects (F508del/MF-HBE), differentiated at air-liquid interface
T1 sequence (P13569 with tags, fused parts or gaps DEL508-508): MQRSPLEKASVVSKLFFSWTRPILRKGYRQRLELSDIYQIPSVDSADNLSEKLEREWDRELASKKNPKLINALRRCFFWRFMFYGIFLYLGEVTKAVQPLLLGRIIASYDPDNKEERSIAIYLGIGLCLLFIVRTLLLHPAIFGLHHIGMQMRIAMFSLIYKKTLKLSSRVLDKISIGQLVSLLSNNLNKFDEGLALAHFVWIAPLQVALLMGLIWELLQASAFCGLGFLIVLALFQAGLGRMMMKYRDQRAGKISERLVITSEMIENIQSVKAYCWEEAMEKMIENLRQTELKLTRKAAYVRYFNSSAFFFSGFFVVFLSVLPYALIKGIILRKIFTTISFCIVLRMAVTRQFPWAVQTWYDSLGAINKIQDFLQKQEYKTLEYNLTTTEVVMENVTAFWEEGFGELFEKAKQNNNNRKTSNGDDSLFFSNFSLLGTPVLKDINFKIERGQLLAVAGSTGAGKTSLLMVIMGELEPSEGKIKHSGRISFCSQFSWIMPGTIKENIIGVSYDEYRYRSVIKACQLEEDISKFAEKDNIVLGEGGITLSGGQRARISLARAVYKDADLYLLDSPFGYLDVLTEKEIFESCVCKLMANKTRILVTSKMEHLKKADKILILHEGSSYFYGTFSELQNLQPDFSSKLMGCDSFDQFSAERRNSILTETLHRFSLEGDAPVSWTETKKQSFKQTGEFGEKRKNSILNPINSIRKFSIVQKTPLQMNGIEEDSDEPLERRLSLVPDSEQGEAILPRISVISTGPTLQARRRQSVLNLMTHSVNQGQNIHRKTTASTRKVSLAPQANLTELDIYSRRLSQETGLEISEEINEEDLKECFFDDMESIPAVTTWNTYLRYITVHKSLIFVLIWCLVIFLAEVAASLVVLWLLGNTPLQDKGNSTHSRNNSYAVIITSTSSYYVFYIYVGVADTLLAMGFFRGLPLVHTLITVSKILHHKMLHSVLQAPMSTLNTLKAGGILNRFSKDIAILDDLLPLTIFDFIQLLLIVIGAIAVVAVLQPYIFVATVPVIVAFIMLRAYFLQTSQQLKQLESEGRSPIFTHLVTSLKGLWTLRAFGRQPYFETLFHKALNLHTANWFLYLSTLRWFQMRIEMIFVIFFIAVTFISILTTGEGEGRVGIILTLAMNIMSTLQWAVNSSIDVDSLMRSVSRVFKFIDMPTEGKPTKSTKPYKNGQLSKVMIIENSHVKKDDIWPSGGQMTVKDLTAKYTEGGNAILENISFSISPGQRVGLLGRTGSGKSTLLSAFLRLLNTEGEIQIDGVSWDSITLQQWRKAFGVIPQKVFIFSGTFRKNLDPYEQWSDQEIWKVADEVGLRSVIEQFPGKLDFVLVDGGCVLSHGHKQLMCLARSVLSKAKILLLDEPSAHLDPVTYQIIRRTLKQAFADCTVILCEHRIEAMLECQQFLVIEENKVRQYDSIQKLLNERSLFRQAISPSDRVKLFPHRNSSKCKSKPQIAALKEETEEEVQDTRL
Method in brief: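 Corrector activity read as CFTR-dependent ISC (μA/cm^2): peak forskolin current minus post-inhibitor steady state. Measured at 37 °C, voltage clamp at 0 mV, on F508del/MF-HBE epithelia grown >14 days air-liquid interface in Ussing chambers.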

CFTR [2] = target: T1, CFTR; test: HBE assay: Ussing chamber assay of CFTR-mediated short-circuit currents; assay type: cell-based; details: for activation at 10 µM: read-out: HBE Activity at 10 μM (%); for pEC50: read-out: HBE EC50; for Emax: read-out: HBE Max activity (%)
Method in brief: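 CFTR-mediated Isc (μA/cm²) equals the peak response to apical 20 μM forskolin minus the residual after a 20 μM each BPO/GlyH-101/CFTR inhibitor 172 cocktail, recorded in Ussing chambers at Vhold 0 mV, 37 °C, pH 7.4, with 30 μM apical amiloride. Cells were F508del/MF HBE cultures preincubated 18-24 h with corrector (concentration range or 10 μM) plus 1 μM ivacaftor in 20% human serum.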

Compound | HBE2 Activity at 3 μM (%) (CFTR [1]; 3 μM) | activation at 10 µM (CFTR [2]; HBE assay, 10 μM) [%] | further results
Cc1cccc(C)c1-c1cc2nc(n1)NS(=O)(=O)c1cccc(c1)C(=O)N(Cc1ccc3cc(C4CC4)n(C)c3n1)[C@H](CC(C)(C)C)CO2 [Compound 1304, (11R)-12-[(2-Cyclopropyl-1-methyl-pyrrolo[2,3-b]pyridin-6-yl)methyl]-6-(2,6-dimethylphenyl)-11-(2,2-dimethylpropyl)-2,2-dioxo-9-oxa-2λ^6-thia-3,5,12,19-tetrazatricyclo[12.3.1.14,8]nonadeca-1(18),4(19),5,7,14,16-hexaen-13-one] | +++ (+++ is >60+) | > 60 | –
Cc1cccc(C)c1-c1cc2nc(n1)NS(=O)(=O)c1cccc(c1)C(=O)N(Cc1ccnc(N(C)C3CC4(CC4)C3)n1)[C@H](CC(C)(C)C)CO2 [Compound 1448] | – | > 60 | pEC50 (CFTR [1]): > 6.00; Emax (CFTR [1]): > 60%
COCC1(CN(C)c2cncc(CN3C(=O)c4cccc(c4)S(=O)(=O)Nc4nc(cc(-c5c(C)cccc5C)n4)OC[C@H]3CC(C)(C)C)n2)CC1 [Compound 1492] | +++ (+++ is >60+) | > 60 | pEC50 (CFTR [2]; HBE assay): > 6.00; Emax (CFTR [2]; HBE assay): > 60%
COC[C@@H](C)N(C)c1cncc(CN2C(=O)c3cccc(c3)S(=O)(=O)Nc3nc(cc(-c4c(C)cccc4C)n3)OC[C@H]2CC(C)(C)C)n1 [Compound 1493] | +++ (+++ is >60+) | – | pEC50 (CFTR [2]; HBE assay): > 6.00; Emax (CFTR [2]; HBE assay): > 60%
Cc1cccc(C)c1-c1cc2nc(n1)NS(=O)(=O)c1cccc(c1)C(=O)N(Cc1cncc(N3CCC[C@H]3C3CC3)n1)[C@H](CC(C)(C)C)CO2 [Compound 1495] | +++ (+++ is >60+) | – | EC50 (CFTR [2]; HBE EC50 (μM), HBE assay): < 1 µM; Emax (CFTR [2]): > 60%
CC[C@@H]1CCCN1c1cncc(CN2C(=O)c3cccc(c3)S(=O)(=O)Nc3nc(cc(-c4c(C)cccc4C)n3)OC[C@H]2CC(C)(C)C)n1 [Compound 1496] | +++ (+++ is >60+) | – | pEC50 (CFTR [2]; HBE assay): > 6.00; Emax (CFTR [2]; HBE assay): > 60%
Cc1cccc(C)c1-c1cc2nc(n1)NS(=O)(=O)c1cccc(c1)C(=O)N(Cc1cncc(N3CCCC[C@H]3C)n1)[C@H](CC(C)(C)C)CO2 [Compound 1506] | – | – | pEC50 (CFTR [1]): > 6.00; Emax (CFTR [1]): > 60%; activation at 10 µM (CFTR [2]): > 60%
Cc1cccc(C)c1-c1cc2nc(n1)NS(=O)(=O)c1cccc(c1)C(=O)N(Cc1cncc(N(C)CC3CC3)n1)[C@H](CC(C)(C)C)CO2 [Compound 1507] | +++ (+++ is >60+) | > 60 | –
Cc1cccc(C)c1-c1cc2nc(n1)NS(=O)(=O)c1cccc(c1)C(=O)N(Cc1cncc(N3CC[C@H]3C)n1)[C@H](CC(C)(C)C)CO2 [Compound 1512] | – | – | pEC50 (CFTR [1]): > 6.00; Emax (CFTR [1]): > 60%; activation at 10 µM (CFTR [2]): > 60%
COC(=O)N(C)c1cnc(CN2C(=O)c3cccc(c3)S(=O)(=O)Nc3nc(cc(-c4c(C)cccc4C)n3)OC[C@H]2CC(C)(C)C)nc1 [Compound 1517] | +++ (+++ is >60+) | > 60 | –
Cc1cccc(C)c1-c1cc2nc(n1)NS(=O)(=O)c1cccc(c1)C(=O)N(Cc1ncc(N(C)C(=O)OC(C)C)cn1)[C@H](CC(C)(C)C)CO2 [Compound 1518] | – | > 60 | Emax (CFTR [1]): > 60%
Cc1cccc(C)c1-c1cc2nc(n1)NS(=O)(=O)c1cccc(c1)C(=O)N(Cc1cncc(N(C)CC(C)C)n1)[C@H](CC(C)(C)C)CO2 [Compound 1519] | – | > 60 | pEC50 (CFTR [1]): > 6.00; Emax (CFTR [1]): > 60%
Cc1cccc(C)c1-c1cc2nc(n1)NS(=O)(=O)c1cccc(c1)C(=O)N(Cc1ncc(N3CC(C)(C)C3)cn1)[C@H](CC(C)(C)C(F)(F)F)CO2 [Compound 1520] | +++ (+++ is >60+) | > 60 | –
CCCOc1cnc(CN2C(=O)c3cccc(c3)S(=O)(=O)Nc3nc(cc(-c4c(C)cccc4C)n3)OC[C@H]2CC2CCC2)nc1 [Compound 1522] | +++ (+++ is >60+) | > 60 | pEC50 (CFTR [1]): > 6.00; Emax (CFTR [1]): > 60%
CCCOc1cnc(CN2C(=O)c3cccc(c3)S(=O)(=O)Nc3nc(cc(-c4c(C)cccc4C)n3)OC[C@H]2CC(C)C)nc1 [Compound 1523] | +++ (+++ is >60+) | > 60 | –
CCC(C)Oc1cnc(CN2C(=O)c3cccc(c3)S(=O)(=O)Nc3nc(cc(-c4c(C)cccc4C)n3)OC[C@H]2CCC(C)C)nc1 (stereo partly shown) [Compound 1528] | +++ (+++ is >60+) | > 60 | –
Cc1cccc(C)c1-c1cc2nc(n1)NS(=O)(=O)c1cccc(c1)C(=O)N(Cc1ncc(N3CC(C)(C)C3)cn1)[C@H](CC1(C(F)(F)F)CC1)CO2 [Compound 1529] | +++ (+++ is >60+) | > 60 | –
CC[C@H](C)Oc1cnc(CN2C(=O)c3cccc(c3)S(=O)(=O)Nc3nc(cc(-c4c(C)cccc4C)n3)OC[C@H]2CC2(C)CC2)nc1 [Compound 1546] | +++ (+++ is >60+) | > 60 | –
CC[C@H](C)Oc1cnc(CN2C(=O)c3cccc(c3)S(=O)(=O)Nc3nc(cc(-c4c(C)cccc4C)n3)OC[C@H]2CCC(C)(C)C)nc1 [Compound 1547] | +++ (+++ is >60+) | > 60 | –
Cc1cccc(C)c1-c1cc2nc(n1)NS(=O)(=O)c1cccc(c1)C(=O)N(Cc1cncc(N3[C@H](C)CC[C@@H]3C)n1)[C@H](COC(C)C)CO2 [Compound 1950] | – | – | HBE2 Activity at 3 μM (%) (CFTR [1]; 3 μM corrector): +++ (+++ is >60+)
Cc1cccc(C)c1-c1cc2nc(n1)NS(=O)(=O)c1cccc(c1)C(=O)N(Cc1ncc(OC3CCC3)cc1F)[C@H](COC(C)C)CO2 [Compound 1953] | – | – | HBE2 Activity at 3 μM (%) (CFTR [1]; 3 μM corrector): +++ (+++ is >60+)
Cc1cccc(C)c1-c1cc2nc(n1)NS(=O)(=O)c1cccc(c1)C(=O)N(Cc1cccc(N3CCC[C@H]3C)n1)[C@H](COC(C)C)CO2 [Compound 1954] | – | – | HBE2 Activity at 3 μM (%) (CFTR [1]; 3 μM corrector): +++ (+++ is >60+)
Cc1cccc(C)c1-c1cc2nc(n1)NS(=O)(=O)c1cccc(c1)C(=O)N(Cc1ncc(N3CCC(C)(C)C3)cn1)[C@H](COC(C)C)CO2 [Compound 1955] | – | – | HBE2 Activity at 3 μM (%) (CFTR [1]; 3 μM corrector): +++ (+++ is >60+)
Cc1cccc(C)c1-c1cc2nc(n1)NS(=O)(=O)c1cccc(c1)C(=O)N(Cc1ncc(OC3CCC3)cn1)[C@H](COC(C)C)CO2 [Compound 1956] | – | – | HBE2 Activity at 3 μM (%) (CFTR [1]; 3 μM corrector): +++ (+++ is >60+)
Cc1cccc(C)c1-c1cc2nc(n1)NS(=O)(=O)c1cccc(c1)C(=O)N(Cc1ncc(OC(C)C)cn1)[C@H](COC(C)C)CO2 [Compound 1957] | – | – | HBE2 Activity at 3 μM (%) (CFTR [1]; 3 μM corrector): +++ (+++ is >60+)
